Where “and” joins values, the source holds several entries; their conditions need not be identical. Equal values may be shown once.
Assays:
[1] = test system: KRAS G12C-mutant advanced CRC; test: NCT04956640 Phase 1b Cohort C2 (with cetuximab) clinical response (BOR, ORR, DCR, DOR, TTR, % change from baseline, treatment duration); type: in vivo, human; parameters: key to Best Response: CR: complete response; PR: partial response; uPR: a partial response pending confirmation; SD: stable disease; PD: progressive disease; NE: not estimable; details: for Duration of response (DOR) <6 months / Overall response status: Censored / Reason censored: Alive without documented disease progression / Time to response (TTR) <2 months: Phase 1b Cohort C2 responders
Description: The term “BOR” as used herein refers to best overall response based on investigator assessments using RECIST criteria (version 1.1). The minimum duration for BOR of SD is at least 6 weeks after the date of first dose of study drug.
The term “DOR” as used herein refers to duration of response, wherein DOR in months is calculated as the event or censoring date minus the response start date plus 1 day divided by 30.4375.
The term “ORR” as used herein refers to objective response rate, wherein objective response rate is the proportion of patients with BOR of CR or PR. Objective response rate, unconfirmed, is the proportion of patients with BOR of CR, PR, or uPR.
The term “TTR” as used herein refers to time to response, wherein TTR in months is calculated as response start date minus first dose date plus 1 day divided by 30.4375.
NCT04956640 includes Phase 1a dose escalation (Part A of NCT04956640, see Table 3) followed by a Phase 1b dose expansion (Parts B to E of NCT04956640, see Table 4). […] Phase 1b dose expansion will include 12 cohorts (See Table 4) to further evaluate safety and clinical activity.

SW1463 = SW1463 (CRC) xenograft model; type: in vivo, mouse
Description: (§1) For xenograft models of H1373, HCC44, MiaPaca-2, SW1463, SW837, KYSE-410 and UM-UC-3, typically 5-10×10^6 cells in a 1:1 matrigel mix (0.2 mL total volume) are implanted by subcutaneous injection in hind leg of nude mice. […] Treatment is initiated with oral administration (gavage) of testing compound or vehicle (20% captisol, 25 mM phosphate, pH2.0) in 0.2 mL volume when tumor size reaches approximately 200-300 mg. Tumor growth and body weight are monitored over time to evaluate efficacy and signs of toxicity. For EL3187 PDX model, frozen vials containing tumor fragments are thawed at 37° C. in a water bath. The tumor fragments are transferred to 50 mL Falcon tube and the ice cold DMEM medium is slowly added into the tube to a total volume of 35 mL. Then the tumor fragments are centrifuged at 130×g for 2 minutes at 4° C. and supernatant is aspirated. This washing step is repeated twice and the tumor fragments are resuspended in 10 mL DMEM for implantation into athymic nude-Foxn1nu mice (Envigo RMS, Inc., Mount Comfort, Indiana). Once tumor volumes reach 800 to 1000 mm^3, animals are sacrificed and tumors are harvested using aseptic technique. Fresh tumors are cut into 10 to 15 mm^3 fragments and placed into cold Gibco hibernate medium. The tumor fragments are subcutaneously implanted into animals with a 10 g trochar needle. When tumor size reaches 200 to 300 mm^3, the animals are randomized for compound treatment.
(§2) Among models listed in Table 2, EL3187 is a patient-derived xenograft (PDX) model, and all other are tumor xenograft models.

KYSE-410 = KYSE-410 (esophagus) xenograft model; type: in vivo, mouse
Description: as §1, §2

[2] = Phase 1b Cohort C2, Total (N = 11)
[3] = Phase 1b Cohort C2, individual patients, starting dose 100 BID, no prior KRAS G12Ci, listed as compound of Formula I
[4] = Phase 1b Cohort C2, individual patients, starting dose 150 BID, no prior KRAS G12Ci, listed as compound of Formula I
[5] = Phase 1b Cohort C2, starting dose 100 mg BID (N = 6)
[6] = Phase 1b Cohort C2, starting dose 150 mg BID (N = 5)
[7] = starting dose 100 mg BID (N = 6)
[8] = starting dose 150 mg BID (N = 5)

## C=CC(=O)N1CCN2C(=O)c3cc(F)c(-c4ccc(F)c5sc(N)c(C#N)c45)c(Cl)c3OCC[C@H]2C1 (single isomer, unassigned) [Formula I]
[1]; [2]
  Best overall response (BOR): Complete Response (CR): 0 (0.0) n (%)
  Best overall response (BOR): Not Evaluable (NE): 0 (0.0) n (%)
  Best overall response (BOR): Partial Response (PR): 3 (27.3) n (%)
  Best overall response (BOR): Partial Response, pending confirmation and ongoing (uPR): 2 (18.2) n (%)
  Best overall response (BOR): Progressive Disease (PD): 0 (0.0) n (%)
  Disease control rate (CR + PR + iPR + SD), Number of patients: 11 (100.0) n (%)
  Objective response rate (CR + PR), Number of patients: 3 (27.3) n (%)
  Objective response rate, confirmed and unconfirmed (CR + PR + uPR), Number of patients: 5 (45.5) n (%)
  Patients with best overall response of CR or PR: 3 (27.3) N′ (%)
  Time to response (months), Interquartile range: 0.33 months
  Time to response (months), Median: 1.31 months
[1]; Phase 1b Cohort C2, individual patients, starting dose 100 BID, no prior KRAS G12Ci
  Time (months) of Progressive Disease: 4.4 months
[1]; [3]
  % Change from Baseline in Sum of Diameters for all Target Lesions: −22.0% and −23.4% and −38.9% and −48.7% and −55.4% and −67.6%
  Best Response: SD (3×) and PR Confirmed (3×)
  Time (months) of Partial Response - Confirmed: 1.3 months and 1.6 months and 1.2 months
[1]; [4]
  % Change from Baseline in Sum of Diameters for all Target Lesions: −13.6% and −19.4% and −36.7% and −45.7% and −5.7%
  Best Response: SD (3×) and PR Pending (2×)
  Time (months) of Partial Response - Pending Confirmation and Ongoing: 2.1 months and 1.4 months
[1]; [5]
  Best overall response (BOR): Complete Response (CR): 0 (0.0) n (%)
  Best overall response (BOR): Not Evaluable (NE): 0 (0.0) n (%)
  Best overall response (BOR): Partial Response (PR): 3 (50.0) n (%)
  Best overall response (BOR): Partial Response, pending confirmation and ongoing (uPR): 0 (0.0) n (%)
  Best overall response (BOR): Progressive Disease (PD): 0 (0.0) n (%)
  Disease control rate (CR + PR + iPR + SD), Number of patients: 6 (100.0) n (%)
  Objective response rate (CR + PR), Number of patients: 3 (50.0) n (%)
  Objective response rate, confirmed and unconfirmed (CR + PR + uPR), Number of patients: 3 (50.0) n (%)
  Patients with best overall response of CR or PR: 3 (50.0) N′ (%)
  Time to response (months), Interquartile range: 0.33 months
  Time to response (months), Median: 1.31 months
[1]; [6]
  Best overall response (BOR): Complete Response (CR): 0 (0.0) n (%)
  Best overall response (BOR): Not Evaluable (NE): 0 (0.0) n (%)
  Best overall response (BOR): Partial Response (PR): 0 (0.0) n (%)
  Best overall response (BOR): Partial Response, pending confirmation and ongoing (uPR): 2 (40.0) n (%)
  Best overall response (BOR): Progressive Disease (PD): 0 (0.0) n (%)
  Disease control rate (CR + PR + iPR + SD), Number of patients: 5 (100.0) n (%)
  Objective response rate (CR + PR), Number of patients: 0 (0.0) n (%)
  Objective response rate, confirmed and unconfirmed (CR + PR + uPR), Number of patients: 2 (40.0) n (%)
  Patients with best overall response of CR or PR: 0 (0.0) N′ (%)
[1]; Total (N = 11)
  Duration of response (DOR) <6 months: 3 (100.0) n (%)
  Overall response status: Censored: 3 (100.0) n (%)
  Reason censored: Alive without documented disease progression: 3 (100.0) n (%)
  Time to response (TTR) <2 months: 3 (100.0) n (%)
[1]; [7]
  Duration of response (DOR) <6 months: 3 (100.0) n (%)
  Overall response status: Censored: 3 (100.0) n (%)
  Reason censored: Alive without documented disease progression: 3 (100.0) n (%)
  Time to response (TTR) <2 months: 3 (100.0) n (%)
[1]; [8]
  Duration of response (DOR) <6 months: 0 (NE) n (%)
  Overall response status: Censored: 0 (NE) n (%)
  Reason censored: Alive without documented disease progression: 0 (NE) n (%)
  Time to response (TTR) <2 months: 0 (NE) n (%)
[1]; human, in vivo
  median time to response: 1.3 month
SW1463; 5 mg/kg BID x28
  tumor growth inhibition (%) or regression (− %): 48.8%
SW1463; 5 mg/kg QD x28
  tumor growth inhibition (%) or regression (− %): 52.5%
SW1463; 10 mg/kg BID x28
  tumor growth inhibition (%) or regression (− %): 79.5%
SW1463; 10 mg/kg QD x28
  tumor growth inhibition (%) or regression (− %): 78.3%
SW1463; 30 mg/kg BID x28
  tumor growth inhibition (%) or regression (− %): 98.8%
SW1463; 30 mg/kg QD x28
  tumor growth inhibition (%) or regression (− %): 89.8%
KYSE-410; 10 mg/kg BID x28
  tumor growth inhibition (%) or regression (− %): 51.5%
KYSE-410; 10 mg/kg QD x28
  tumor growth inhibition (%) or regression (− %): 25.3%
KYSE-410; 30 mg/kg BID x28
  tumor growth inhibition (%) or regression (− %): 61.8%
KYSE-410; 30 mg/kg QD x28
  tumor growth inhibition (%) or regression (− %): 66.7%
